Columns and labels:
[1] = target: T1, BCR-FMS BaF3 cells (Homo sapiens, UniProt P07333); assay: BaF3 BCR-FMS cell proliferation assay (ATPlite); type: cell-based; conditions: read-out: Inhibition of Cell Proliferation IC50, BCR/BaF3 Fms
T1 construct: fused on or other part: P11274 (Breakpoint cluster region protein)
T1 sequence (P07333 582-910): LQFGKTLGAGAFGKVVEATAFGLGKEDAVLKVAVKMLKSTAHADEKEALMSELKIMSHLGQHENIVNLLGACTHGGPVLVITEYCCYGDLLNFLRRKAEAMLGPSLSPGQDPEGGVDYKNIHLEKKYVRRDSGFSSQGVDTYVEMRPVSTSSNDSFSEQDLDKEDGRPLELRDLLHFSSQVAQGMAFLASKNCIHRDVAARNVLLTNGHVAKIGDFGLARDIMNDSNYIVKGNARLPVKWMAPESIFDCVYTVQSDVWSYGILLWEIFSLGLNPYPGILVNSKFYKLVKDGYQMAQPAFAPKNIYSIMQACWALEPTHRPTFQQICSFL
How it was run: (§1)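 For these proliferation assays, engineered BaF3 cells (10,000/well, IL-3 withdrawn) and MV-4-11 cells (25,000/well) received compound serially diluted 1:3 from 10 μM over 8 points, with DMSO as control. After three days of culture, ATP content was measured by luminescence to derive IC50.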

[2] = target: Fms kinase (Homo sapiens, UniProt P07333); assay: Fms kinase biochemical activity assay (AlphaScreen, biotin-(E4Y)10 phosphorylation); conditions: 100 μM ATP; read-out: Biochemical Inhibition IC50 Fms
Fms kinase, sequence (P07333 20-972): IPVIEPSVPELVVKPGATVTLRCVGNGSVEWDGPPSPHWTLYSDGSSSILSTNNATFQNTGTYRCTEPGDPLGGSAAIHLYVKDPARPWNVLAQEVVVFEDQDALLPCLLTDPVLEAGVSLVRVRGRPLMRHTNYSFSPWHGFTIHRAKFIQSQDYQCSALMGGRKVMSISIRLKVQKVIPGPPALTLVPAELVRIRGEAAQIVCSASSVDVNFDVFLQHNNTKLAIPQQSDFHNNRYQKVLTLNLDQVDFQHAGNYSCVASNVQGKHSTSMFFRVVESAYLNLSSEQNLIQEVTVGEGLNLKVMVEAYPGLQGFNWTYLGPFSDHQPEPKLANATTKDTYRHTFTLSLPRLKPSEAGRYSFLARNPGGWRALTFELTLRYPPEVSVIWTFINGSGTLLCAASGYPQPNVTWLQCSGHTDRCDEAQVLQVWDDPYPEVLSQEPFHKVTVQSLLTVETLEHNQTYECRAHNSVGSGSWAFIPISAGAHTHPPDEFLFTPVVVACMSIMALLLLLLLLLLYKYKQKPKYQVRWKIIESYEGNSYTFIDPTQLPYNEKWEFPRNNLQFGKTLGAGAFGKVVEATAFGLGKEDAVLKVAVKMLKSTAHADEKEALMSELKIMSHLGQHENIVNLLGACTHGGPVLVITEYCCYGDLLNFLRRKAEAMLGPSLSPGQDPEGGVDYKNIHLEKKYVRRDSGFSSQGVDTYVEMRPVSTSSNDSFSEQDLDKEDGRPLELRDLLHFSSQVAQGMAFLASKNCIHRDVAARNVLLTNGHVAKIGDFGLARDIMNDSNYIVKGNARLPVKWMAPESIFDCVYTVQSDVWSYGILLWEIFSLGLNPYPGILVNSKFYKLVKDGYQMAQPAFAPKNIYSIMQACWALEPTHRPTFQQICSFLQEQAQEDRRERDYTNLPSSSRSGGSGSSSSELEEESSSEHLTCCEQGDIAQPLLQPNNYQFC
How it was run: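 AlphaScreen read-out (PY20 acceptor, streptavidin donor beads, EDTA stop) of biotin-(E4Y)10 phosphorylation, with IC50 taken from the concentration–signal curve. Reaction: 30 nM substrate, 100 μM ATP, 1 ng/well Fms, Hepes pH 7.5 with Mg2+/Mn2+, 5% DMSO, 20 min at 30 °C.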

[3] = target: T2, BCR-KIT BaF3 cells (Homo sapiens, UniProt P10721); assay: BaF3 BCR-KIT cell proliferation assay (ATPlite); type: cell-based; conditions: read-out: Inhibition of Cell Proliferation IC50, BCR/BaF3 Kit
T2 construct: fused on or other part: P11274 (Breakpoint cluster region protein)
T2 sequence (P10721 589-937): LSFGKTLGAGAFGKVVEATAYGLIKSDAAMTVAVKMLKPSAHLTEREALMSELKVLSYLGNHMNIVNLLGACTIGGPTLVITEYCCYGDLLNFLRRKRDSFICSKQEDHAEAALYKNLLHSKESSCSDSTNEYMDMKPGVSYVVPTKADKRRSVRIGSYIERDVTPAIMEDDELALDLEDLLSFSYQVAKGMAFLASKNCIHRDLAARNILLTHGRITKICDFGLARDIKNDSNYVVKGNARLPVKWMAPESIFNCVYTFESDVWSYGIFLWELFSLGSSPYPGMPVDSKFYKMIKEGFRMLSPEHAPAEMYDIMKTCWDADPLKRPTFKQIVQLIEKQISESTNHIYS
How it was run: as §1

Row | Compound | IC50 [1] [µM] | IC50 [2] [µM] | IC50 [3] [µM]
1 | COc1ccc(Nc2ccc(C(=O)c3c[nH]c4ncnc(C5CC5)c34)c(F)n2)cn1 [Compound P-4022, (4-cyclopropyl-7H-pyrrolo[2,3-d]pyrimidin-5-yl)-[2-fluoro-6-(6-methoxy-pyridin-3-ylamino)-pyridin-3-yl]-methanone] | < 0.1 | < 0.1 | < 1
2 | CCOc1ccc(Nc2ccc(C(=O)c3c[nH]c4ncnc(C5CC5)c34)c(F)n2)cn1 [Compound P-4027, (4-Cyclopropyl-7H-pyrrolo[2,3-d]pyrimidin-5-yl)-[6-(6-ethoxy-pyridin-3-ylamino)-2-fluoro-pyridin-3-yl]-methanone] | < 0.1 | < 0.1 | < 1
3 | CCc1ccc(Nc2ccc(C(=O)c3c[nH]c4ncnc(C5CC5)c34)c(F)n2)cn1 [Compound P-4029, (4-Cyclopropyl-7H-pyrrolo[2,3-d]pyrimidin-5-yl)-[6-(6-ethyl-pyridin-3-ylamino)-2-fluoro-pyridin-3-yl]-methanone] | < 0.1 | < 0.01 | < 0.1
4 | Cc1ccc(Nc2ccc(Cc3c[nH]c4ncnc(C5CC5)c34)c(F)n2)cn1 [Compound P-4030, [5-(4-Cyclopropyl-7H-pyrrolo[2,3-d]pyrimidin-5-ylmethyl)-6-fluoro-pyridin-2-yl]-(6-methyl-pyridin-3-yl)-amine] | < 0.01 | < 0.01 | < 1
5 | Cc1ccc(Nc2ccc(C(=O)c3c[nH]c4ncnc(C5CC5)c34)c(F)n2)cn1 [Compound P-4031, (4-Cyclopropyl-7H-pyrrolo[2,3-d]pyrimidin-5-yl)-[2-fluoro-6-(6-methyl-pyridin-3-ylamino)-pyridin-3-yl]-methanone] | < 0.1 | < 0.1 | < 1
6 | CCn1cc(Nc2ccc(Cc3c[nH]c4ncnc(C5CC5)c34)c(F)n2)cn1 [Compound P-4036, [5-(4-Cyclopropyl-7H-pyrrolo[2,3-d]pyrimidin-5-ylmethyl)-6-fluoro-pyridin-2-yl]-(1-ethyl-1H-pyrazol-4-yl)-amine] | < 0.1 | < 0.01 | < 1
7 | CCn1cc(Nc2ccc(C(=O)c3c[nH]c4ncnc(C5CC5)c34)c(F)n2)cn1 [Compound P-4037, (4-Cyclopropyl-7H-pyrrolo[2,3-d]pyrimidin-5-yl)-[6-(1-ethyl-1H-pyrazol-4-ylamino)-2-fluoro-pyridin-3-yl]-methanone] | < 0.1 | < 0.1 | < 0.1
8 | Cc1cncc(Nc2ccc(Cc3c[nH]c4ncnc(C5CC5)c34)c(F)n2)c1 [Compound P-4038, [5-(4-Cyclopropyl-7H-pyrrolo[2,3-d]pyrimidin-5-ylmethyl)-6-fluoro-pyridin-2-yl]-(5-methyl-pyridin-3-yl)-amine] | < 0.1 | < 0.1 | < 1
9 | Cc1cncc(Nc2ccc(C(=O)c3c[nH]c4ncnc(C5CC5)c34)c(F)n2)c1 [Compound P-4039, (4-Cyclopropyl-7H-pyrrolo[2,3-d]pyrimidin-5-yl)-[2-fluoro-6-(5-methyl-pyridin-3-ylamino)-pyridin-3-yl]-methanone] | < 0.1 | < 1 | < 1
10 | Fc1nc(NC2CCC(F)(F)CC2)ccc1Cc1c[nH]c2ncnc(NCC(F)(F)F)c12 [Compound P-4128, 5-[[6-[(4,4-difluorocyclohexyl)amino]-2-fluoro-3-pyridyl]methyl]-N-(2,2,2-trifluoroethyl)-7H-pyrrolo[2,3-d]pyrimidin-4-amine] | < 0.1 | < 0.1 | < 1
11 | Fc1nc(NC2CCC(F)(F)CC2)ccc1Cc1c[nH]c2ncnc(NC3CC3)c12 [Compound P-4129, N-cyclopropyl-5-[[6-[(4,4-difluorocyclohexyl)amino]-2-fluoro-3-pyridyl]methyl]-7H-pyrrolo[2,3-d]pyrimidin-4-amine] | < 0.1 | < 0.1 | < 1
12 | Fc1nc(Nc2ccc(C3CC3)nc2)ccc1Cc1c[nH]c2ncnc(NCC(F)(F)F)c12 [Compound P-4130, 5-[[6-[(6-cyclopropyl-3-pyridyl)amino]-2-fluoro-3-pyridyl]methyl]-N-(2,2,2-trifluoroethyl)-7H-pyrrolo[2,3-d]pyrimidin-4-amine] | < 0.01 | < 0.01 | > 1

The remaining lines, values ahead:

Row | IC50 [1] [µM] | IC50 [2] [µM] | IC50 [3] [µM] | Compound
13 | < 0.01 | < 0.1 | > 1 | COCCOc1ncnc2[nH]cc(Cc3ccc(Nc4ccc(C)nc4)nc3F)c12 [Compound P-4015, {6-Fluoro-5-[4-(2-methoxy-ethoxy)-7H-pyrrolo[2,3-d]pyrimidin-5-ylmethyl]-pyridin-2-yl}-(6-methyl-pyridin-3-yl)-amine]
14 | < 0.01 | < 0.01 | < 0.1 | CCc1ccc(Nc2ccc(Cc3c[nH]c4ncnc(OCCOC)c34)c(F)n2)cn1 [Compound P-4016, (6-Ethyl-pyridin-3-yl)-{6-fluoro-5-[4-(2-methoxy-ethoxy)-7H-pyrrolo[2,3-d]pyrimidin-5-ylmethyl]-pyridin-2-yl}-amine]
15 | < 0.01 | < 0.01 | < 1 | CCOc1ncnc2[nH]cc(Cc3ccc(Nc4ccc(C)nc4)nc3F)c12 [Compound P-4017, [5-(4-Ethoxy-7H-pyrrolo[2,3-d]pyrimidin-5-ylmethyl)-6-fluoro-pyridin-2-yl]-(6-methyl-pyridin-3-yl)-amine]
16 | < 0.01 | < 0.01 | < 1 | CCOc1ncnc2[nH]cc(Cc3ccc(Nc4ccc(OC)nc4)nc3F)c12 [Compound P-4018, [5-(4-Ethoxy-7H-pyrrolo[2,3-d]pyrimidin-5-ylmethyl)-6-fluoro-pyridin-2-yl]-(6-methoxy-pyridin-3-yl)-amine]
17 | < 0.01 | < 0.01 | < 1 | COCCOc1ncnc2[nH]cc(Cc3ccc(Nc4ccc(OC)nc4)nc3F)c12 [Compound P-4019, {6-Fluoro-5-[4-(2-methoxy-ethoxy)-7H-pyrrolo[2,3-d]pyrimidin-5-ylmethyl]-pyridin-2-yl}-(6-methoxy-pyridin-3-yl)-amine]
18 | < 0.1 | < 0.01 | < 1 | CCOc1ncnc2[nH]cc(Cc3ccc(Nc4ccc(Br)nc4)nc3F)c12 [Compound P-4020, (6-Bromo-pyridin-3-yl)-[5-(4-ethoxy-7H-pyrrolo[2,3-d]pyrimidin-5-ylmethyl)-6-fluoro-pyridin-2-yl]-amine]
19 | < 1 | < 0.1 | > 1 | CCOc1ncnc2[nH]cc(Cc3ccc(Nc4cccnc4)nc3F)c12 [Compound P-4021, [5-(4-Ethoxy-7H-pyrrolo[2,3-d]pyrimidin-5-ylmethyl)-6-fluoro-pyridin-2-yl]-pyridin-3-yl-amine]
20 | < 0.01 | < 0.01 | < 1 | COc1ccc(Nc2ccc(Cc3c[nH]c4ncnc(C5CC5)c34)c(F)n2)cn1 [Compound P-4023, [5-(4-cyclopropyl-7H-pyrrolo[2,3-d]pyrimidin-5-ylmethyl)-6-fluoro-pyridin-2-yl]-(6-methoxy-pyridin-3-yl)-amine]
21 | < 0.1 | < 1 | < 1 | CCOc1ccc(Nc2ccc(C(=O)c3c[nH]c4ncnc(OC)c34)c(F)n2)cn1 [Compound P-4024, [6-(6-Ethoxy-pyridin-3-ylamino)-2-fluoro-pyridin-3-yl]-(4-methoxy-7H-pyrrolo[2,3-d]pyrimidin-5-yl)-methanone]
22 | < 0.1 | < 1 | > 1 | CCOc1ncnc2[nH]cc(C(=O)c3ccc(Nc4ccc(OC)nc4)nc3F)c12 [Compound P-4025, (4-Ethoxy-7H-pyrrolo[2,3-d]pyrimidin-5-yl)-[2-fluoro-6-(6-methoxy-pyridin-3-ylamino)-pyridin-3-yl]-methanone]
23 | < 0.01 | < 0.01 | < 1 | CCOc1ccc(Nc2ccc(Cc3c[nH]c4ncnc(C5CC5)c34)c(F)n2)cn1 [Compound P-4026, [5-(4-Cyclopropyl-7H-pyrrolo[2,3-d]pyrimidin-5-ylmethyl)-6-fluoro-pyridin-2-yl]-(6-ethoxy-pyridin-3-yl)-amine]
24 | < 0.01 | < 0.01 | < 1 | CCc1ccc(Nc2ccc(Cc3c[nH]c4ncnc(C5CC5)c34)c(F)n2)cn1 [Compound P-4028, [5-(4-Cyclopropyl-7H-pyrrolo[2,3-d]pyrimidin-5-ylmethyl)-6-fluoro-pyridin-2-yl]-(6-ethyl-pyridin-3-yl)-amine]
25 | < 0.1 | < 0.1 | < 1 | CCOc1ccc(Nc2ccc(C(=O)c3c[nH]c4ncnc(C)c34)c(F)n2)cn1 [Compound P-4032, [6-(6-Ethoxy-pyridin-3-ylamino)-2-fluoro-pyridin-3-yl]-(4-methyl-7H-pyrrolo[2,3-d]pyrimidin-5-yl)-methanone]

From patent US8901118B2, “Compounds and methods for kinase modulation, and indications therefor” (Plexxikon Inc., priority 2010, dated 2014)
